Test results published in the NIST ThermoML archive (doi:10.1016/j.fluid.2006.09.024).
± gives the expanded uncertainty stated by the source.

Columns and labels:
[1] = Liquid, Ebulliometric method (Recirculating still)
[2] = xn = mol fraction of the nth substance listed; conditions: 101 kPa, Liquid

## C1C[C@@H]2[C@@H]3CC[C@@H](C3)[C@@H]2C1 [endo-tetrahydrodicyclopentadiene]
[1]; 344.02 K
  vapor or sublimation pressure: 2 ± 0.2 kPa
[1]; 358.17 K
  vapor or sublimation pressure: 3.5 ± 0.2 kPa
[1]; 367.23 K
  vapor or sublimation pressure: 5 ± 0.2 kPa
[1]; 384.68 K
  vapor or sublimation pressure: 10 ± 0.2 kPa
[1]; 396.77 K
  vapor or sublimation pressure: 15 ± 0.2 kPa
[1]; 405.51 K
  vapor or sublimation pressure: 20 ± 0.2 kPa
[1]; 412.5 K
  vapor or sublimation pressure: 25 ± 0.2 kPa
[1]; 418.51 K
  vapor or sublimation pressure: 30 ± 0.2 kPa
[1]; 423.84 K
  vapor or sublimation pressure: 35 ± 0.2 kPa
[1]; 428.42 K
  vapor or sublimation pressure: 40 ± 0.2 kPa
[1]; 432.64 K
  vapor or sublimation pressure: 45 ± 0.2 kPa
[1]; 436.48 K
  vapor or sublimation pressure: 50 ± 0.2 kPa
[1]; 440.06 K
  vapor or sublimation pressure: 55 ± 0.2 kPa
[1]; 443.43 K
  vapor or sublimation pressure: 60 ± 0.2 kPa
[1]; 446.4 K
  vapor or sublimation pressure: 65 ± 0.2 kPa
[1]; 451.93 K
  vapor or sublimation pressure: 75 ± 0.2 kPa
[1]; 454.45 K
  vapor or sublimation pressure: 80 ± 0.2 kPa
[1]; 456.82 K
  vapor or sublimation pressure: 85 ± 0.2 kPa
[1]; 458.86 K
  vapor or sublimation pressure: 90 ± 0.2 kPa
[1]; 460.9 K
  vapor or sublimation pressure: 95 ± 0.2 kPa
[1]; 462.76 K
  vapor or sublimation pressure: 100 ± 0.2 kPa
[1]; 463.6 K
  vapor or sublimation pressure: 101.6 ± 0.2 kPa

## C1C[C@@H]2[C@@H]3CC[C@@H](C3)[C@@H]2C1 [endo-tetrahydrodicyclopentadiene] + C1C[C@@H]2[C@H]3CC[C@H](C3)[C@@H]2C1
[2]; 288.15 K, x2 = 0.4028
  kinematic viscosity: 6.06e-06 ± 1.6e-07 m2/s
  mass density: 954.39 ± 0.27 kg/m3
[2]; 288.15 K, x2 = 0.5145
  kinematic viscosity: 5.23e-06 ± 1.5e-07 m2/s
  mass density: 951.54 ± 0.27 kg/m3
[2]; 288.15 K, x2 = 0.6017
  kinematic viscosity: 4.62e-06 ± 1.3e-07 m2/s
  mass density: 949.22 ± 0.28 kg/m3
[2]; 288.15 K, x2 = 0.6956
  kinematic viscosity: 4.18e-06 ± 1.2e-07 m2/s
  mass density: 946.72 ± 0.28 kg/m3
[2]; 288.15 K, x2 = 0.7966
  kinematic viscosity: 3.86e-06 ± 1.1e-07 m2/s
  mass density: 944.23 ± 0.29 kg/m3
[2]; 288.15 K, x2 = 0.9069
  kinematic viscosity: 3.47e-06 ± 1e-07 m2/s
  mass density: 941.57 ± 0.29 kg/m3
[2]; 288.15 K, x2 = 0.9933
  kinematic viscosity: 3.18e-06 ± 9.2e-08 m2/s
  mass density: 939.58 ± 0.29 kg/m3
[2]; 298.15 K, x2 = 0.4028
  kinematic viscosity: 4.7e-06 ± 1.3e-07 m2/s
  mass density: 946.44 ± 0.29 kg/m3
[2]; 298.15 K, x2 = 0.5145
  kinematic viscosity: 4.1e-06 ± 1.2e-07 m2/s
  mass density: 943.63 ± 0.29 kg/m3
[2]; 298.15 K, x2 = 0.6017
  kinematic viscosity: 3.68e-06 ± 1.1e-07 m2/s
  mass density: 941.29 ± 0.29 kg/m3
[2]; 298.15 K, x2 = 0.6956
  kinematic viscosity: 3.35e-06 ± 9.7e-08 m2/s
  mass density: 938.85 ± 0.3 kg/m3
[2]; 298.15 K, x2 = 0.7966
  kinematic viscosity: 3.06e-06 ± 8.9e-08 m2/s
  mass density: 936.36 ± 0.3 kg/m3
[2]; 298.15 K, x2 = 0.9069
  kinematic viscosity: 2.82e-06 ± 8.2e-08 m2/s
  mass density: 933.78 ± 0.31 kg/m3
[2]; 298.15 K, x2 = 0.9933
  kinematic viscosity: 2.65e-06 ± 7.8e-08 m2/s
  mass density: 931.79 ± 0.31 kg/m3
[2]; 308.15 K, x2 = 0.4028
  kinematic viscosity: 3.67e-06 ± 1.1e-07 m2/s
  mass density: 938.48 ± 0.3 kg/m3
[2]; 308.15 K, x2 = 0.5145
  kinematic viscosity: 3.23e-06 ± 9.4e-08 m2/s
  mass density: 935.68 ± 0.31 kg/m3
[2]; 308.15 K, x2 = 0.6017
  kinematic viscosity: 2.96e-06 ± 8.6e-08 m2/s
  mass density: 933.37 ± 0.31 kg/m3
[2]; 308.15 K, x2 = 0.6956
  kinematic viscosity: 2.72e-06 ± 8e-08 m2/s
  mass density: 930.9 ± 0.31 kg/m3
[2]; 308.15 K, x2 = 0.7966
  kinematic viscosity: 2.49e-06 ± 7.3e-08 m2/s
  mass density: 928.49 ± 0.32 kg/m3
[2]; 308.15 K, x2 = 0.9069
  kinematic viscosity: 2.31e-06 ± 6.8e-08 m2/s
  mass density: 925.9 ± 0.32 kg/m3
[2]; 308.15 K, x2 = 0.9933
  kinematic viscosity: 2.22e-06 ± 6.6e-08 m2/s
  mass density: 923.99 ± 0.32 kg/m3
[2]; 318.15 K, x2 = 0.4028
  kinematic viscosity: 2.99e-06 ± 8.7e-08 m2/s
  mass density: 930.47 ± 0.32 kg/m3
[2]; 318.15 K, x2 = 0.5145
  kinematic viscosity: 2.67e-06 ± 7.8e-08 m2/s
  mass density: 927.69 ± 0.32 kg/m3
[2]; 318.15 K, x2 = 0.6017
  kinematic viscosity: 2.46e-06 ± 7.3e-08 m2/s
  mass density: 925.41 ± 0.33 kg/m3
[2]; 318.15 K, x2 = 0.6956
  kinematic viscosity: 2.29e-06 ± 6.8e-08 m2/s
  mass density: 923 ± 0.33 kg/m3
[2]; 318.15 K, x2 = 0.7966
  kinematic viscosity: 2.12e-06 ± 6.3e-08 m2/s
  mass density: 920.59 ± 0.33 kg/m3
[2]; 318.15 K, x2 = 0.9069
  kinematic viscosity: 1.97e-06 ± 5.9e-08 m2/s
  mass density: 918.06 ± 0.34 kg/m3
[2]; 318.15 K, x2 = 0.9933
  kinematic viscosity: 1.87e-06 ± 5.6e-08 m2/s
  mass density: 916.14 ± 0.34 kg/m3

## C1C[C@@H]2[C@H]3CC[C@H](C3)[C@@H]2C1 [exo-tetrahydrodicyclopentadiene]
[1]; 335.45 K
  vapor or sublimation pressure: 2 ± 0.2 kPa
[1]; 349.97 K
  vapor or sublimation pressure: 3.5 ± 0.2 kPa
[1]; 360.37 K
  vapor or sublimation pressure: 5 ± 0.2 kPa
[1]; 379.33 K
  vapor or sublimation pressure: 10 ± 0.2 kPa
[1]; 391.56 K
  vapor or sublimation pressure: 15 ± 0.2 kPa
[1]; 400.07 K
  vapor or sublimation pressure: 20 ± 0.2 kPa
[1]; 407.31 K
  vapor or sublimation pressure: 25 ± 0.2 kPa
[1]; 413.28 K
  vapor or sublimation pressure: 30 ± 0.2 kPa
[1]; 418.87 K
  vapor or sublimation pressure: 35 ± 0.2 kPa
[1]; 423.1 K
  vapor or sublimation pressure: 40 ± 0.2 kPa
[1]; 427.5 K
  vapor or sublimation pressure: 45 ± 0.2 kPa
[1]; 431.46 K
  vapor or sublimation pressure: 50 ± 0.2 kPa
[1]; 434.98 K
  vapor or sublimation pressure: 55 ± 0.2 kPa
[1]; 438.26 K
  vapor or sublimation pressure: 60 ± 0.2 kPa
[1]; 441.37 K
  vapor or sublimation pressure: 65 ± 0.2 kPa
[1]; 444.02 K
  vapor or sublimation pressure: 70 ± 0.2 kPa
[1]; 447.09 K
  vapor or sublimation pressure: 75 ± 0.2 kPa
[1]; 449.62 K
  vapor or sublimation pressure: 80 ± 0.2 kPa
[1]; 452.19 K
  vapor or sublimation pressure: 85 ± 0.2 kPa
[1]; 454.39 K
  vapor or sublimation pressure: 90 ± 0.2 kPa
[1]; 456.75 K
  vapor or sublimation pressure: 95 ± 0.2 kPa
[1]; 458.83 K
  vapor or sublimation pressure: 100 ± 0.2 kPa
[1]; 459.38 K
  vapor or sublimation pressure: 101.4 ± 0.2 kPa
